Data as given in US20090318456A1, “SUBSTITUTED PTERIDINES FOR THE TREATMENT AND PREVENTION OF VIRAL INFECTIONS” (Gilead Sciences, Inc., priority 2006, published 2009).

Assays:
Huh-7 HCV replicon cells = test: CC50 assay (CellTiter-Glo) in Huh-7 HCV replicon cells; format: cell-based, human; conditions: Table 1, 3 days
Description: (§1) The anti HCV activity of specifically 2,4,6-trisubstituted pteridine derivatives was tested in a human hepatoma Huh-7 cell line harbouring a HCV replicon. The assay comprised the following steps:
(§2) Step 1: compound preparation and serial dilution involved the following alternatives, depending upon the water solubility of pteridine derivative being tested: • 1. with respect to water soluble 2,4,6-trisubstituted pteridine derivatives, 500 μL of solution in cell media (DMEM, 10% FBS, P/S, L-Glutamine) was prepared with a concentration that is twice the concentration of the starting final serial dilution concentration. 150 μL of the solution was added to the pre-specified wells in column 1 of a 96-well cell culture plate (PerkinElmer, white plate, cat. #6005181, for EC50 assay; black plate, cat. #6005182 for CC50 assay). The rest of the plate, i.e. columns 2-12, was filled with 100 μL of cell media. The plate was then placed on a Precision 2000 Workstation in order to start serial dilution. Pteridine compounds were diluted three times each step from column 1 to column 10. Column 11 was used as a blank control (no pteridine compound added). • 2. With respect to poorly water soluble pteridine derivatives, DMSO was used as a solvent, and serial dilution was performed in 50% DMSO in water, in a 384-well plate. A solution containing the relevant compound at 100-fold the concentration of the starting final serial dilution concentration was prepared in 50% DMSO in water and added to the pre-specified wells in column 1 of a polypropylene 384-well plate. This plate was then placed on a Precision 2000 Workstation in order to start serial dilution. After serial dilution, 2 μL of the solution was transferred from the 384-well plate to a 96-well cell culture plate containing 100 μL of cell media on a Biomek FX Workstation. The DMSO concentration in the final assay condition was 0.5% after cells have been added to the plate and the total volume in each well was brought to 200 μL. Step 2: to each well of the serial dilution plate prepared in step 1, 100 μL of cell media containing 6000 suspended Huh-7 HCV replicon cells was added with a Multidrop workstation. Plates were incubated for 3 days at 37° C. with 5% CO2. Step 3: detection: • 1) with respect to the EC50 assay, the media in a 96-well cell culture plate was aspirated with a Biotek EL405 plate-washer. A volume of 200 μL of a solution containing a 1:1 mixture of a cell-lysis buffer (commercially available from Promega, Luciferase Cell Culture Lysis 5× Reagent, cat. #E1531) and a luciferase substrate solution (commercially available from Promega, Luciferase Assay, cat. # E4550) was added to each well of the plate with Multidrop. The plate was incubated for 30 minutes at room temperature before the luminescence signal was measured with a TopCount plate-reader. • 2) with respect to the CC50 assay, 100 μL of a pre-mixed CellTiter-Glo (commercially available from Promega, cat. # G7572) solution was added directly to the cell culture in each well of the plate and the luminescence signal was measured with a TopCount plate-reader after 10 minutes of incubation at room temperature.
(§3) Results are expressed by the following data: • the 50% effective concentration (EC50), i.e. the concentration that protects 50% of the cell monolayer from virus-induced cythopathic effect, and • the 50% cytostatic concentration (CC50), i.e. the concentration that results in 50% inhibition of cell growth.

HCV replicon = test: Anti-HCV replicon assay (EC50, luciferase); format: cell-based, Hepatitis C virus (HCV); conditions: Table 1; Huh-7 HCV replicon cells, 3 days, luciferase; read-out: EC50
Description: as §1, §2, §3

Structure (SMILES) | CC50 (Huh-7 HCV replicon cells) | EC50 (HCV replicon)
COc1ccc(-c2cnc3nc(N)nc(N4CCN(C(=O)COc5ccccc5)CC4)c3n2)cc1OC [Example 1] | > 20 µM | < 0.3 µM
COc1ccc(-c2cnc3nc(N)nc(N4CCN(CCOc5ccccc5)CC4)c3n2)cc1OC [Example 2] | > 20 µM | < 0.3 µM
COc1ccc(-c2cnc3nc(N)nc(N4CCN(C(=O)Nc5cccc(C)c5)CC4)c3n2)cc1OC [Example 3] | < 10 µM | < 0.3 µM
COc1ccc(-c2cnc3nc(NCc4cccs4)nc(N)c3n2)cc1OC [Example 12] | 10 to 20 µM | 0.3 to 1 µM
CCCCCC(=O)N1CCN(c2nc(N)nc3ncc(-c4ccc(OC)c(OC)c4)nc23)CC1 [Example 16] | 10 to 20 µM | < 0.3 µM
COc1ccc(-c2cnc3nc(N)nc(N4CCN(C(=O)c5cccs5)CC4)c3n2)cc1OC [Example 19] | 10 to 20 µM | < 0.3 µM
CCN(CC)C(=O)N1CCN(c2nc(N)nc3ncc(-c4ccc(OC)c(OC)c4)nc23)CC1 [Example 20] | > 20 µM | < 0.3 µM
COc1ccc(-c2cnc3nc(N)nc(N4CCN(C(=O)c5ccncc5)CC4)c3n2)cc1OC [Example 22] | 10 to 20 µM | < 0.3 µM
CCCCCOc1ccc(C(=O)N2CCN(c3nc(N)nc4ncc(-c5ccc(OC)c(OC)c5)nc34)CC2)cc1 [Example 24] | < 10 µM | < 0.3 µM
COc1ccc(-c2cnc3nc(N)nc(N4CCN(S(=O)(=O)c5ccccc5)CC4)c3n2)cc1OC [Example 26] | 10 to 20 µM | < 0.3 µM
COc1ccc(-c2cnc3nc(N)nc(N4CCN(C(=O)Cc5cccs5)CC4)c3n2)cc1OC [Example 27] | < 10 µM | < 0.3 µM
COc1ccc(-c2cnc3nc(N)nc(N4CCN(C(=O)/C=C/c5ccccc5)CC4)c3n2)cc1OC [Example 28] | < 10 µM | < 0.3 µM
COc1ccc(-c2cnc3nc(N)nc(N4CCN(C(=O)N5CCCC5)CC4)c3n2)cc1OC [Example 29] | 10 to 20 µM | < 0.3 µM
COc1ccc(-c2cnc3nc(N)nc(N4CCN(C(=O)c5cc(F)c(Cl)nc5Cl)CC4)c3n2)cc1OC [Example 31] | < 10 µM | < 0.3 µM
COCC(=O)N1CCN(c2nc(N)nc3ncc(-c4ccc(OC)c(OC)c4)nc23)CC1 [Example 32] | > 20 µM | < 0.3 µM
COc1ccc(-c2cnc3nc(N)nc(N4CCN(S(=O)(=O)Cc5ccccc5)CC4)c3n2)cc1OC [Example 34] | > 20 µM | < 0.3 µM
COc1ccc(-c2cnc3nc(N)nc(N4CCN(C(=O)Cc5ccc(Cl)cc5)CC4)c3n2)cc1OC [Example 36] | < 10 µM | < 0.3 µM
COc1ccc(-c2cnc3nc(N)nc(N4CCN(C(=O)c5ccoc5)CC4)c3n2)cc1OC [Example 38] | 10 to 20 µM | 0.3 to 1 µM
COc1ccc(-c2cnc3nc(N)nc(N4CCN(C(=O)OCc5ccccc5)CC4)c3n2)cc1OC [Example 43] | < 10 µM | < 0.3 µM
COc1ccc(-c2cnc3nc(N)nc(N4CCN(Cc5cccc(C)c5)CC4)c3n2)cc1OC [Example 49] | 10 to 20 µM | < 0.3 µM
COc1ccc(-c2cnc3nc(N)nc(N4CCN(Cc5ccc(C)cc5)CC4)c3n2)cc1OC [Example 52] | > 20 µM | 0.3 to 1 µM
COc1ccc(-c2cnc3nc(N)nc(N4CCN(Cc5ccccc5F)CC4)c3n2)cc1OC [Example 53] | < 10 µM | < 0.3 µM
CCCCc1ccc(C(=O)N2CCN(c3nc(N)nc4ncc(-c5ccc(OC)c(OC)c5)nc34)CC2)cc1 [Example 54] | < 10 µM | < 0.3 µM
COCCN1CCN(c2nc(N)nc3ncc(-c4ccc(OC)c(OC)c4)nc23)CC1 [Example 55] | > 20 µM | 0.3 to 1 µM

Structure (SMILES) | CC50 (Huh-7 HCV replicon cells) | EC50 (HCV replicon)
COc1ccc(-c2cnc3nc(N)nc(N4CCN(C(=O)Oc5ccc(C)cc5)CC4)c3n2)cc1OC [Example 59] | < 10 µM | < 0.3 µM
COc1ccc(OC(=O)N2CCN(c3nc(N)nc4ncc(-c5ccc(OC)c(OC)c5)nc34)CC2)cc1 [Example 60] | < 10 µM | < 0.3 µM
COc1ccc(-c2cnc3nc(N)nc(N4CCN(C(=O)Oc5ccc(Cl)cc5)CC4)c3n2)cc1OC [Example 63] | < 10 µM | < 0.3 µM
COCCOC(=O)N1CCN(c2nc(N)nc3ncc(-c4ccc(OC)c(OC)c4)nc23)CC1 [Example 65] | 10 to 20 µM | < 0.3 µM
COc1ccc(-c2cnc3nc(N)nc(N4CCN(C(C)c5ccccc5)CC4)c3n2)cc1OC (stereo not shown) [Example 73] | < 10 µM | < 0.3 µM
COc1ccc(-c2cnc3nc(N)nc(N4CCN(Cc5cccnc5)CC4)c3n2)cc1OC [Example 80] | 10 to 20 µM | < 0.3 µM
COc1ccc(-c2cnc3nc(N)nc(N4CCN(Cc5ccncc5)CC4)c3n2)cc1OC [Example 81] | 10 to 20 µM | 0.3 to 1 µM
COc1ccc(-c2cnc3nc(N)nc(N4CCN(CC(=O)N5CCOCC5)CC4)c3n2)cc1OC [Example 83] | > 20 µM | 0.3 to 1 µM
COc1ccc(-c2cnc3nc(N)nc(N4CCN(CC(=O)N5CCCC5)CC4)c3n2)cc1OC [Example 84] | > 20 µM | < 0.3 µM
COc1ccc(-c2cnc3nc(N)nc(N4CCN(CC(=O)N(C)c5ccccc5)CC4)c3n2)cc1OC [Example 85] | < 10 µM | < 0.3 µM
COc1ccc(-c2cnc3nc(N)nc(N4CCN(CCc5ccccc5)CC4)c3n2)cc1OC [Example 86] | 10 to 20 µM | < 0.3 µM
COc1ccc(-c2cnc3nc(N)nc(N4CCN(C(=O)Nc5ccccc5)CC4)c3n2)cc1OC [Example 87] | < 10 µM | < 0.3 µM
COc1ccc(-c2cnc3nc(N)nc(N4CCN(C(=O)Nc5ccc(F)cc5)CC4)c3n2)cc1OC [Example 88] | < 10 µM | < 0.3 µM
COc1ccc(-c2cnc3nc(N)nc(N4CCN(C(=O)Nc5ccc(C#N)cc5)CC4)c3n2)cc1OC [Example 89] | > 20 µM | < 0.3 µM
COc1ccc(N2CCN(c3nc(N)nc4ncc(-c5ccc(OC)c(OC)c5)nc34)CC2)cc1 [Example 95] | > 20 µM | 0.3 to 1 µM
CCOC(=O)CN1CCN(c2nc(N)nc3ncc(-c4ccc(OC)c(OC)c4)nc23)CC1 [Example 98] | 10 to 20 µM | < 0.3 µM
COc1ccc(-c2cnc3nc(N)nc(N4CCN(Cc5ccccn5)CC4)c3n2)cc1OC [Example 99] | 10 to 20 µM | 0.3 to 1 µM
COc1ccc(-c2cnc3nc(N)nc(N4CCN(CCC#N)CC4)c3n2)cc1OC [Example 100] | 10 to 20 µM | < 0.3 µM
CCOCCN1CCN(c2nc(N)nc3ncc(-c4ccc(OC)c(OC)c4)nc23)CC1 [Example 104] | > 20 µM | < 0.3 µM
COc1ccc(-c2cnc3nc(N)nc(N4CCN(CC5CCCO5)CC4)c3n2)cc1OC (stereo not shown) [Example 108] | > 20 µM | 0.3 to 1 µM
COc1ccc(-c2cnc3nc(N)nc(N4CCN(CC5OCCO5)CC4)c3n2)cc1OC [Example 109] | > 20 µM | 0.3 to 1 µM
COc1ccc(-c2cnc3nc(N)nc(N4CCN(C(=O)NCc5ccccc5)CC4)c3n2)cc1OC [Example 111] | 10 to 20 µM | < 0.3 µM
COc1ccc(-c2cnc3nc(N)nc(N4CCN(C(=O)NCc5ccc(F)cc5)CC4)c3n2)cc1OC [Example 112] | < 10 µM | < 0.3 µM
